Common to all, as to format: cell-based
For test [1], the target named is HER2 (A775_G776insYVMA) expressing Ba/F3 stable cell line (Homo sapiens, UniProt P04626, DUP772-775, cells depend on it). Briefly: Cellular proliferation (Alamar Blue) assay, HER2 A775_G776insYVMA Ba/F3. Particulars: 72 hr, read-out: YVMA IC50. Summed up:
(§1)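 Seventy-two-hour compound exposure (3-fold series, final 10–0.0005 μM) of mutant EGFR/HER2 Ba/F3 cells plated at 15,000/well in RPMI with 10% FBS. Alamar Blue added for 3 h at 37 °C as proliferation read-out.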
Background: Alamar Blue is a resazurin reagent that responds to reducing activity.

Test [2] has as its target EGFR (H773insNPH) expressing Ba/F3 stable cell line (Homo sapiens, UniProt P00533, DUP771-773, cells depend on it). Put plainly: Cellular proliferation (Alamar Blue) assay, EGFR H773insNPH Ba/F3. As to conditions: 72 hr, read-out: NPH IC50. Summed up:
as §1

Test [3] has as its target EGFR(D770_N771insSVD) expressing Ba/F3 stable cell line (Homo sapiens, UniProt P00533, DUP768-770, cells depend on it). Put plainly: Cellular proliferation (Alamar Blue) assay, EGFR D770_N771insSVD Ba/F3. As to conditions: 72 hr, read-out: D770 IC50. Summed up:
as §1

Test [4] concerns the target EGFR (A767_dupASV) expressing Ba/F3 stable cell line (Homo sapiens, UniProt P00533, DUP767-769, cells depend on it). Briefly: Cellular proliferation (Alamar Blue) assay, EGFR A767_dupASV Ba/F3. Particulars: 72 hr, read-out: A767 IC50. Summed up: as §1
The test system of the next test is A431 cells. Put plainly: Cellular proliferation (Alamar Blue) assay, A431. Particulars: Homo sapiens, A-431; A431 cells, Alamar Blue, 72 hr; read-out: A431 IC50.

Counter-ions that a name gives are not always drawn.

Sequence of EGFR(D770_N771insSVD) expressing Ba/F3 stable cell line (P00533 with tags, fused parts or gaps DUP768-770): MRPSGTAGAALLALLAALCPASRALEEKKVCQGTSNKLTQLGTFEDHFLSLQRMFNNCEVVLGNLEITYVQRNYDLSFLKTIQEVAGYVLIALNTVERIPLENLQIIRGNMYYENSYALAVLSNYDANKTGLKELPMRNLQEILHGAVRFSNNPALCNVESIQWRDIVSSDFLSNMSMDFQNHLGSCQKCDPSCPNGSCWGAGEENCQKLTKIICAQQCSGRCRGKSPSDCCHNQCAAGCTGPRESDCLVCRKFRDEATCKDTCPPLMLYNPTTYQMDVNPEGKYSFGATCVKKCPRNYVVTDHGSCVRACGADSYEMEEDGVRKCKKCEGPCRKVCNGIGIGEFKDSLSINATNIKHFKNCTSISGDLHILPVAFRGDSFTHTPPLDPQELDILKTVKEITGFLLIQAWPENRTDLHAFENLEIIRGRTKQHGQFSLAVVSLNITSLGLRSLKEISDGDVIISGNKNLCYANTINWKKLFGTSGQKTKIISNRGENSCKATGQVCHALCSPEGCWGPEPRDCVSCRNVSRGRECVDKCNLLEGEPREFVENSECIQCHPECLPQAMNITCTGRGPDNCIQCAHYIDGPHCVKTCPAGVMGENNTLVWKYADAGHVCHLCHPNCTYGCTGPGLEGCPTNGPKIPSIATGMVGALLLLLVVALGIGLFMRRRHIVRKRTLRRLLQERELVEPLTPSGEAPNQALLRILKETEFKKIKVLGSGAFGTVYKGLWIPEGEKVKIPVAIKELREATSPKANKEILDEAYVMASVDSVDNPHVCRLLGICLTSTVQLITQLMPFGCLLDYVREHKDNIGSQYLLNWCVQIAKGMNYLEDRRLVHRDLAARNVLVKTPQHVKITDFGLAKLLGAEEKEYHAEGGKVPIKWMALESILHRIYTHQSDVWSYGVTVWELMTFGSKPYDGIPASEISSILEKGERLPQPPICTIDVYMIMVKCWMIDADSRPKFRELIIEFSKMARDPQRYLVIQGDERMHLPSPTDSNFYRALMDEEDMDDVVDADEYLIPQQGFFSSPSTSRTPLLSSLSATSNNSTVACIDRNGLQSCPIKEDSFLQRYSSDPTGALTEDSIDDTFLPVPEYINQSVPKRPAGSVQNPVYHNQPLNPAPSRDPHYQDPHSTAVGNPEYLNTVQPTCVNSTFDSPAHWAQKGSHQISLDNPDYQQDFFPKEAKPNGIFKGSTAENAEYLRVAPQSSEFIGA
Sequence of EGFR (H773insNPH) expressing Ba/F3 stable cell line (P00533 with tags, fused parts or gaps DUP771-773): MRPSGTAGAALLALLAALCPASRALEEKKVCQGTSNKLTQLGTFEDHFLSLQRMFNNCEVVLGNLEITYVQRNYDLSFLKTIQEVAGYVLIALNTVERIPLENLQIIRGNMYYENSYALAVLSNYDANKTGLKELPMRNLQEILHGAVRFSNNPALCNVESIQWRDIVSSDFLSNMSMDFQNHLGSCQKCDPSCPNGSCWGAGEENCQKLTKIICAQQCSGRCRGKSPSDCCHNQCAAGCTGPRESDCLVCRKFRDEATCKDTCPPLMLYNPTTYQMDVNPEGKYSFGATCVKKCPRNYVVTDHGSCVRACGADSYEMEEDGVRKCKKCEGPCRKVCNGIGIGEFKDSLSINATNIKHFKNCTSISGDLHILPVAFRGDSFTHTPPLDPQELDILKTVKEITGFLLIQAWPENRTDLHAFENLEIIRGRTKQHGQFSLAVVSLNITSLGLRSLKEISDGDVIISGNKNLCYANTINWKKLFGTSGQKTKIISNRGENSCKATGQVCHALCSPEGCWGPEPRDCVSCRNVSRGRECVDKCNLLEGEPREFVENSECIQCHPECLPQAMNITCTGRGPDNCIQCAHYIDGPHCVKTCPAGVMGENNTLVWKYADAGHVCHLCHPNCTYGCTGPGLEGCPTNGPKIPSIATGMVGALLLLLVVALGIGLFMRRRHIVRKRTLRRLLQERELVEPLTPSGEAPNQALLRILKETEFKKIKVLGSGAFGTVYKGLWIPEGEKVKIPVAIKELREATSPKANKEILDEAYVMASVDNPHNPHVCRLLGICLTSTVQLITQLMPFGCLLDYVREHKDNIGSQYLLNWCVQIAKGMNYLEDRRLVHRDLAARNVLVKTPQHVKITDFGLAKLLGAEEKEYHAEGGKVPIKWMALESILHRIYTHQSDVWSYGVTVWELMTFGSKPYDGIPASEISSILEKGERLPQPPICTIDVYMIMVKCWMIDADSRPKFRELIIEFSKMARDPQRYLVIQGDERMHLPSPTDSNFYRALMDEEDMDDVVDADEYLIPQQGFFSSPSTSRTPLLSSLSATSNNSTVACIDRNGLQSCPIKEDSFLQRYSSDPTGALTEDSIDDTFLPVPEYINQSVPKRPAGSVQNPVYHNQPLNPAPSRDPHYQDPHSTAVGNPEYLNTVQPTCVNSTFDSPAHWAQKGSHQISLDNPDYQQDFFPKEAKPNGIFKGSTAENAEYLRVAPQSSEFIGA
Sequence of EGFR (A767_dupASV) expressing Ba/F3 stable cell line (P00533 with tags, fused parts or gaps DUP767-769): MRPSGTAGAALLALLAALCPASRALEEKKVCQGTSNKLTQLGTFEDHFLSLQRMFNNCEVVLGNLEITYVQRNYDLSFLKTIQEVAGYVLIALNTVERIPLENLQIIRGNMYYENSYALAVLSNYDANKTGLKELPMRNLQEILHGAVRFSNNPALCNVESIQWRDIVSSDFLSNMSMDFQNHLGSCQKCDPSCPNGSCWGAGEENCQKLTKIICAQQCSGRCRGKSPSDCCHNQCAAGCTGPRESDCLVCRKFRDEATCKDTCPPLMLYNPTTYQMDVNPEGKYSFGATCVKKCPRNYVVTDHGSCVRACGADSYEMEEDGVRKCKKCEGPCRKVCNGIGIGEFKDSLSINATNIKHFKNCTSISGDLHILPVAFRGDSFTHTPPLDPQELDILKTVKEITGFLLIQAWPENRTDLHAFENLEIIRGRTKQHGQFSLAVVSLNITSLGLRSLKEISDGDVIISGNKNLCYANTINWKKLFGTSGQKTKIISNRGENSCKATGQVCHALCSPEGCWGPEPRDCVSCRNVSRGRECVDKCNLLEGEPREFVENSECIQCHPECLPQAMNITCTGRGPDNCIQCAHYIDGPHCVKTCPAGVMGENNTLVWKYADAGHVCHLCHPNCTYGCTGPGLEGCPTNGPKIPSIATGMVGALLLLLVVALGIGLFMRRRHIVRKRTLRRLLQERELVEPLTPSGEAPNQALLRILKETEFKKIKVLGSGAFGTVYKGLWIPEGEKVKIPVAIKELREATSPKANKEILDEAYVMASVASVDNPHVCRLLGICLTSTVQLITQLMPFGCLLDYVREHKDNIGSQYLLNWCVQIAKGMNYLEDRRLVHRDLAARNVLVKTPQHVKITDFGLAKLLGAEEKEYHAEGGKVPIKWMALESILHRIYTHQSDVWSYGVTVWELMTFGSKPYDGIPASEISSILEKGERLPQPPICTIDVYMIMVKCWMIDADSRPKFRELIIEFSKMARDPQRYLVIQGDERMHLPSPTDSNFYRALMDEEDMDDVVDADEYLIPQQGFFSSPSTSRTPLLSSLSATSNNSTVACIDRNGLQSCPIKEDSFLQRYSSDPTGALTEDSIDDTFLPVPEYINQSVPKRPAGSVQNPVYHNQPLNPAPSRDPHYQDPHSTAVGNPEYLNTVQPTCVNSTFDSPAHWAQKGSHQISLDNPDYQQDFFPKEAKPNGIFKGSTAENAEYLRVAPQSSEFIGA
Sequence of HER2 (A775_G776insYVMA) expressing Ba/F3 stable cell line (P04626 with tags, fused parts or gaps DUP772-775): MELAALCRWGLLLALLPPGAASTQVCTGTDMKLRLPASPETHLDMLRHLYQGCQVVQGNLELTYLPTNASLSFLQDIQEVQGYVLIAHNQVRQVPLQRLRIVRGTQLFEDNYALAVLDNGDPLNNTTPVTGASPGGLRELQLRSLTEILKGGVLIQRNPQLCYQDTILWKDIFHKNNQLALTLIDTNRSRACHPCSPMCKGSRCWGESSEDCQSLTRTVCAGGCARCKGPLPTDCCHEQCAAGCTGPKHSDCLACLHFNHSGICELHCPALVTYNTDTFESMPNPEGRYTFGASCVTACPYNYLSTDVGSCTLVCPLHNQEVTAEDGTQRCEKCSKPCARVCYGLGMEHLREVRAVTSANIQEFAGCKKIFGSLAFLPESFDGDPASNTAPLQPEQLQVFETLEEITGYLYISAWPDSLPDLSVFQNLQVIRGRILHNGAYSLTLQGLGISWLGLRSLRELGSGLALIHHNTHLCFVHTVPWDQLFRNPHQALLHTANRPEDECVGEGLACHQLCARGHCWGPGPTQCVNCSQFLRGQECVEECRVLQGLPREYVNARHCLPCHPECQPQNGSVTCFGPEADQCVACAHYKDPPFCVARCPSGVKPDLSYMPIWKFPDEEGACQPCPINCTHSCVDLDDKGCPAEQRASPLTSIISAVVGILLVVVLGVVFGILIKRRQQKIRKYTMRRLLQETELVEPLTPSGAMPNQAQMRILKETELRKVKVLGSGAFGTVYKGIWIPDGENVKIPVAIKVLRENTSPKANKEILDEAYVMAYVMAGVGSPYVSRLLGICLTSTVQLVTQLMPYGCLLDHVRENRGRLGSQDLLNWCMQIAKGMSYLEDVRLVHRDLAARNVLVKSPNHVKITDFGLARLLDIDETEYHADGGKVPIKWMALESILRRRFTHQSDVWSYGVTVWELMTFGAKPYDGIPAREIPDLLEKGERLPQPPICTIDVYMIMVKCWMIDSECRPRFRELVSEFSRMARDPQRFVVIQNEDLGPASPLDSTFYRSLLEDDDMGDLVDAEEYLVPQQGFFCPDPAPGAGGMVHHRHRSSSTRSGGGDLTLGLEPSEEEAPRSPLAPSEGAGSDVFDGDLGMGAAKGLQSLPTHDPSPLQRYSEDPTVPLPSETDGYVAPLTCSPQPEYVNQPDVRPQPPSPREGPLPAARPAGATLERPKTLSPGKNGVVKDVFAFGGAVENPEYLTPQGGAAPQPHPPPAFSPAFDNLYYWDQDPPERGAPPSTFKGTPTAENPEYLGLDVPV

Regarding `C=CC(=O)Nc1cccc(Oc2nc(Nc3cnn(C)c3)ncc2-c2ccc(F)nc2)c1` [Compound 109, N-(3-((5-(6-fluoropyridin-3-yl)-2-((1-methyl-1H-pyrazol-4-yl)amino)pyrimidin-4-yl)oxy)phenyl)acrylamide], the GI50 in test [1] was found to be 344 nM; in test [2], 112 nM; in test [3] it was 100 nM; in test [4], 53 nM. For the same molecule, in the test with A431 cells, the IC50 was determined as 613 nM.

`C=CC(=O)Nc1cccc(Nc2nc(Nc3cnn(C)c3)ncc2-c2ccc(C(F)(F)F)cc2)c1` [Compound 111, N-(3-((2-((1-methyl-1H-pyrazol-4-yl)amino)-5-(4-(trifluoromethyl)phenyl)pyrimidin-4-yl)amino)phenyl)acrylamide]: the GI50 in test [1] was 138 nM; in test [2], 103 nM; in test [3] it was 48 nM; in test [4], 41 nM. For the same molecule, in the test with A431 cells, the IC50 amounted to 27 nM.

Take `C=CC(=O)Nc1ccc(F)c(Nc2nc(Nc3cn(C)nc3Cl)ncc2-c2ccc(C(F)(F)F)cc2)c1` [Compound 112, N-(3-((2-((3-chloro-1-methyl-1H-pyrazol-4-yl)amino)-5-(4-(trifluoromethyl)phenyl)pyrimidin-4-yl)amino)-4-fluorophenyl)acrylamide trifluoroacetate]: the GI50 in test [1] came to 288 nM; in test [2], 138 nM; in test [3] it was 93 nM; in test [4] it was 80 nM. Moreover, the IC50 in the test with A431 cells is 88 nM.

Consider `C=CC(=O)Nc1cccc(Nc2nc(Nc3cnn(C)c3)ncc2-c2cccc(F)c2)c1` [Compound 115, N-(3-((5-(3-fluorophenyl)-2-((1-methyl-1H-pyrazol-4-yl)amino)pyrimidin-4-yl)amino)phenyl)acrylamide trifluoroacetate], for which the GI50 was determined as 25 nM in test [1], 30 nM in test [2], 16 nM in test [3] and 39 nM in test [4]. Also, in the test with A431 cells, the IC50 worked out at 100 nM.

Regarding `C=CC(=O)Nc1ccc(F)c(Nc2nc(Nc3cnn(C)c3)ncc2-c2cncc(N(C)C)c2)c1` [Compound 116, N-(3-((5-(5-(dimethylamino)pyridin-3-yl)-2-((1-methyl-1H-pyrazol-4-yl)amino)pyrimidin-4-yl)amino)-4-fluorophenyl)acrylamide trifluoroacetate], the GI50 worked out at 251 nM in test [1], 136 nM in test [2], 108 nM in test [3] and 94 nM in test [4]. Besides, in the test on A431 cells, the half-maximal inhibitory concentration (IC50) is 108 nM.

As for `C=CC(=O)Nc1ccc(F)c(Nc2nc(Nc3cnn(C)c3)ncc2-c2ccnc(Cl)c2)c1` [Compound 117, N-(3-((5-(2-chloropyridin-4-yl)-2-((1-methyl-1H-pyrazol-4-yl)amino)pyrimidin-4-yl)amino)-4-fluorophenyl)acrylamide], the GI50 in test [1] turned out to be 160 nM; in test [2], 107 nM; in test [3] it was 86 nM; in test [4], 57 nM. Also, in the test with A431 cells, the IC50 turned out to be 85 nM.

Take `C=CC(=O)Nc1ccc(F)c(Nc2nc(Nc3cn(C)nc3C)ncc2-c2ccc(C(F)(F)F)cc2)c1` [Compound 135, N-(3-((2-((1,3-dimethyl-1H-pyrazol-4-yl)amino)-5-(4-(trifluoromethyl)phenyl)pyrimidin-4-yl)amino)-4-fluorophenyl)acrylamide trifluoroacetate]: the GI50 in test [1] stood at 413 nM; in test [2] it was 235 nM; in test [3] it was 120 nM; in test [4], 257 nM. The IC50 in the test on A431 cells turned out to be 94 nM.

Regarding `C=CC(=O)Nc1ccc(F)c(Nc2nc(Nc3cnn(C4COC4)c3)ncc2-c2ccc(C(F)(F)F)cc2)c1` [Compound 139, N-(4-fluoro-3-((2-((1-(oxetan-3-yl)-1H-pyrazol-4-yl)amino)-5-(4-(trifluoromethyl)phenyl)pyrimidin-4-yl)amino)phenyl)acrylamide], the GI50 in test [1] was found to be 690 nM; in test [2], 148 nM; in test [3] it was 116 nM; in test [4], 125 nM. Further, the concentration for half-maximal inhibition (IC50) in the test with A431 cells was greater than 10000 nM.

For the molecule `C=CC(=O)Nc1ccc(F)c(Nc2nc(Nc3cnn(C)c3)ncc2-c2ccc(OC(F)F)cc2)c1` [Compound 140, N-(3-((5-(4-(difluoromethoxy)phenyl)-2-((1-methyl-1H-pyrazol-4-yl)amino)pyrimidin-4-yl)amino)-4-fluorophenyl)acrylamide], the GI50 is 269 nM in test [1], 58 nM in test [2], 32 nM in test [3] and 34 nM in test [4]. Further, the IC50 in the test on A431 cells was 22 nM.

On to `C=CC(=O)Nc1ccc(F)c(Nc2nc(Nc3cnn(C)c3)ncc2-c2cncc(OC)c2)c1` [Compound 141, N-(4-fluoro-3-((5-(5-methoxypyridin-3-yl)-2-((1-methyl-1H-pyrazol-4-yl)amino)pyrimidin-4-yl)amino)phenyl)acrylamide], for which the GI50 in test [1] was determined as 201 nM; in test [2], 49 nM; in test [3], 101 nM; in test [4], 100 nM. Besides, the IC50 with A431 cells was 141 nM.

`C=CC(=O)Nc1cccc(Nc2nc(Nc3cnn(C)c3)ncc2-c2ccc(OC(F)F)cc2)c1` [Compound 142, N-(3-((5-(4-(difluoromethoxy)phenyl)-2-((1-methyl-1H-pyrazol-4-yl)amino)pyrimidin-4-yl)amino)phenyl)acrylamide trifluoroacetate]: the GI50 in test [1] amounted to 50 nM; in test [2], 24 nM; in test [3], 16 nM; in test [4], 34 nM. In addition, in the test on A431 cells, the 50% inhibitory concentration (IC50) was 169 nM.

Consider `C=CC(=O)Nc1cccc(Nc2nc(Nc3cnn(C)c3)ncc2-c2cncc(C(F)F)c2)c1` [Compound 144, N-(3-((5-(5-(difluoromethyl)pyridin-3-yl)-2-((1-methyl-1H-pyrazol-4-yl)amino)pyrimidin-4-yl)amino)phenyl)acrylamide trifluoroacetate], for which the GI50 in test [1] is 38 nM; in test [2], 101 nM; in test [3], 37 nM; in test [4] it was 70 nM. The half-maximal inhibitory concentration (IC50) in the test with A431 cells came out at 122 nM.

With `C=CC(=O)Nc1ccc(F)c(Nc2nc(Nc3cnn(C)c3)ncc2-c2cncnc2)c1` [Compound 147, N-(4-fluoro-3-((2-((1-methyl-1H-pyrazol-4-yl)amino)-[5,5′-bipyrimidin]-4-yl)amino)phenyl)acrylamide trifluoroacetate], the GI50 in test [1] worked out at 100 nM; in test [2], 68 nM; in test [3], 105 nM; in test [4], 101 nM. Moreover, the IC50 with A431 cells was found to be 466 nM.

Consider `C=CC(=O)Nc1cccc(Oc2nc(Nc3cnn(C)c3)ncc2-c2ccc(C(F)(F)F)cc2)c1` [Compound 151, N-(3-((2-((1-methyl-1H-pyrazol-4-yl)amino)-5-(4-(trifluoromethyl)phenyl)pyrimidin-4-yl)oxy)phenyl)acrylamide], for which the GI50 in test [1] was determined as 354 nM; in test [2] it was 226 nM; in test [3], 105 nM; in test [4], 129 nM. Besides, the IC50 in the test on A431 cells worked out at 375 nM.

Consider `C=CC(=O)Nc1ccc(F)c(Oc2nc(Nc3cnn(C)c3)ncc2-c2ccc(C(F)(F)F)cc2)c1` [Compound 152, N-(4-fluoro-3-((2-((1-methyl-1H-pyrazol-4-yl)amino)-5-(4-(trifluoromethyl)phenyl)pyrimidin-4-yl)oxy)phenyl)acrylamide], for which the GI50 in test [1] came to 651 nM; in test [2], 407 nM; in test [3], 173 nM; in test [4] it was 300 nM. In addition, the IC50 with A431 cells came to 3500 nM.

`C=CC(=O)Nc1cccc(Oc2nc(Nc3cnn(C)c3)ncc2-c2cncc(F)c2)c1` [Compound 184, N-(3-((5-(5-fluoropyridin-3-yl)-2-((1-methyl-1H-pyrazol-4-yl)amino)pyrimidin-4-yl)oxy)phenyl)acrylamide]: the GI50 is 60 nM in test [1], 222 nM in test [2], 37 nM in test [3] and 27 nM in test [4]. In addition, in the test on A431 cells, the IC50 is 97 nM.

For the molecule `C=CC(=O)Nc1cccc(Oc2nc(Nc3cnn(C)c3)ncc2-c2ccc(Cl)nc2)c1` [Compound 185, N-(3-((5-(6-chloropyridin-3-yl)-2-((1-methyl-1H-pyrazol-4-yl)amino)pyrimidin-4-yl)oxy)phenyl)acrylamide], the GI50 in test [1] amounted to 113 nM; in test [2] it was 97 nM; in test [3], 40 nM; in test [4], 37 nM. Besides, the IC50 in the test on A431 cells turned out to be 522 nM.

Take `C=CC(=O)Nc1cccc(Oc2nc(Nc3cnn(C)c3)ncc2-c2ccc(C)nc2)c1` [Compound 186, N-(3-((2-((1-methyl-1H-pyrazol-4-yl)amino)-5-(6-methylpyridin-3-yl)pyrimidin-4-yl)oxy)phenyl)acrylamide]: the GI50 is 175 nM in test [1], 106 nM in test [2], 114 nM in test [3] and 90 nM in test [4]. Further, the IC50 in the test on A431 cells came out at 170 nM.

With `C=CC(=O)Nc1cccc(Oc2nc(Nc3cnn(C)c3)ncc2-c2ccc(C(F)F)nc2)c1` [Compound 187, N-(3-((5-(6-(difluoromethyl)pyridin-3-yl)-2-((1-methyl-1H-pyrazol-4-yl)amino)pyrimidin-4-yl)oxy)phenyl)acrylamide], the GI50 in test [1] was found to be 226 nM; in test [2] it was 99 nM; in test [3], 40 nM; in test [4] it was 61 nM. For the same molecule, in the test on A431 cells, the IC50 worked out at 281 nM.

A word on the IC50: it is the point on the concentration scale where inhibition reaches its midpoint.
